Reference: patent US6930207B2, “Trifluoroacetylalkyl-substituted phenyl, phenol and benzoyl compounds and related methods of treatment” (Solvay Pharmaceutical GmbH, priority 2001, dated 2005)
Read-outs that look alike come from different tables or passages of the source.

Tests used:
[1] = molecular target: T1, porcine pancreatic lipase (Sus scrofa, UniProt P00591); assay: in vitro pancreatic lipase activity test (lipolytic release of p-nitrophenol from p-nitrophenyl palmitate, extinction at 405 nm); format: biochemical; settings: read-out: residual lipase activity, relative to the original initial lipolytic activity; for remaining activity at 0.182 µM: test substance concentration 0.182 μM; for remaining activity at 0.091 µM: test substance concentration 0.091 μM
T1 sequence (P00591 1-450): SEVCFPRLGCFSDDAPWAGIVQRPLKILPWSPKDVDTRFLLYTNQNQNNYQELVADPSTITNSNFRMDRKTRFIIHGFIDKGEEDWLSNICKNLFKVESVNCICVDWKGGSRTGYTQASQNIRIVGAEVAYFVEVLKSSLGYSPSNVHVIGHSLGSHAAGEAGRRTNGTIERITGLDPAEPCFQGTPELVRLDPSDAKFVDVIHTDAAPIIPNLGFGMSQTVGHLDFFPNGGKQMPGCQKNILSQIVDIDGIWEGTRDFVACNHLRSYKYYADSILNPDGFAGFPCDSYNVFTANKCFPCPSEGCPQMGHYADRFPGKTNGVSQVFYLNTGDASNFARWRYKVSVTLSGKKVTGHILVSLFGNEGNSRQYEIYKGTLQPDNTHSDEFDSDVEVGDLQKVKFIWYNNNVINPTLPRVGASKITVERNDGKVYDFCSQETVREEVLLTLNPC
Procedure: In this test the inhibition of the lipolytic action of porcine pancreatic lipase with respect to the test substrate p-nitrophenyl palmitate under the influence of the test substances of Formula I was determined. Therein, the change in the relative extinction of the investigated solutions caused by the lipolytic release of p-nitrophenol from p-nitrophenyl palmitate was measured. The residual activity of the lipase remaining after the addition of the test substances is given in percent, relative to the original initial lipolytic activity. The example numbers quoted relate to the preparation examples given below.
The reagents given below are prepared: • 1. Substrate Solution • For the preparation of a “solution A”, 45 mg p-nitrophenyl palmitate was dissolved in 15 ml isopropanol by sonication with ultrasound. For the preparation of a “solution B” 310 mg Na-deoxycholate dry substance and 150 mg gum arabic were dissolved in 135 ml 0.05 M sodium phosphate buffer (pH=8.0). 5 minutes before the test was performed, 9 ml “solution B” was mixed with 1 ml “solution A” to form a “solution C” and brought to a temperature of 38° C. • 2. Pancreatic Lipase Solution • 100 mg FIP-lipase standard LS7 (porcine pancreatic lipase, 36,700 FIP units/g) were dissolved in 50 ml ice-cold 1%-strength aqueous sodium chloride solution and filtered through a 0.2 μm-syringe filter. After determination of the lipase activity in accordance with FIP, the solution was set to an activity of 40 FIP units/ml with 1%-strength aqueous sodium chloride solution. Dilute pancreatic lipase solutions which had activities of in each case 10, 20 and 30 FIP units/ml were also prepared from the pancreatic lipase solution for a calibration series by diluting with 1%-strength aqueous sodium chloride solution. • 3. Inhibitor Solutions • The lipase-inhibitory compounds of Formula I were dissolved in various concentrations in dimethyl sulfoxide (DMSO), so that between 2.0 and 800 nmol of the inhibitor were present in 100 μl inhibitor solution. Pure DMSO was used to determine the blank reading. Performance of the Test
100 μl of the inhibitor solution of a given concentration prepared as described above was temperature-controlled for 5 minutes in the cell changer of a photometer (Biochrom 4060). Then 1 ml of the above “solution C” was added with stirring. Then the reaction was started by addition of 100 μl pancreatic lipase solution with stirring. 2 minutes after the start of the reaction, the extinction of each sample was detected for 4 minutes at 405 nm.
In each case, in addition to the sample measurement, a calibration series was also measured to determine the lipase activity. […] The calibration series served to determine the lipase activity. To determine the calibration series, the lipase units used were plotted against the extinction values (dE/min) determined in each case. Using these calibration lines and the extinction values determined for the respective incubation batches, the lipase activity can be determined for each sample. […] To determine the blank reading, 100 μl DMSO were mixed with 1 ml “solution C” and the reaction was started by addition of 100 μl of a lipase solution.
The measured value of the photometer per batch (dE/min.) is yielded by the difference in the extinction values after the second and sixth minute (dE) divided by the measuring time (dt=4 min.). The blank reading is determined analogously and then subtracted from the measured value. The residual activity can be read off via the calibration line by means of the dE value calculated in this manner.
In the pancreatic lipase activity test set forth above, the test substances given below each in a concentration (c) of 0.727 μM (unless otherwise stated) caused an inhibition of the lipase activity to the fraction of the original initial activity given below. The compounds of Examples 17, 28, 29, 32, 39, 40, 47, 48, 56, 58 and 59 were measured in a concentration of 0.364 μM each time. […]

[2] = test substance concentration (c) 0.727 μM, substrate p-nitrophenyl palmitate
[3] = substrate p-nitrophenyl palmitate
[4] = range of examples with mixed concentrations: 0.727 μM unless otherwise stated, Ex. 17, 28, 29, 32, 39, 40, 47, 48, 56, 58, 59 at 0.364 μM, 21, 35, 37, 38, 49, 50, 51, 54, 55, 64 at 0.182 μM, 46, 61, 62, 65 at 0.091 μM

SMILES	remaining activity at 0.727 µM [1, 2]	melting point	remaining activity at 0.182 µM [1, 3]	other results
O=C(CCCCCCCCCCOc1ccccc1)C(F)(F)F [Example 5, 1,1,1-trifluoro-12-phenoxy-dodecan-2-one]	≤ 60%	47 to 49 °C		
O=C(CCCCCCCCCc1ccccc1)C(F)(F)F [Example 8, 1,1,1-trifluoro-11-phenyl-undecan-2-one]	≤ 60%			
COc1ccc(CCCC(=O)C(F)(F)F)cc1 [Example 11, 5-(4-methoxyphenyl)-1,1,1-trifluoropentan-2-one]	≤ 60%			
O=C(CCCOc1ccc(OCCCc2ccccc2)cc1)C(F)(F)F [Example 32, 1,1,1-trifluoro-5-[4-(3-phenylpropoxy)phenoxy]pentan-2-one]		32 to 35 °C		
O=C(CCCC(=O)C(F)(F)F)c1cccc(OCc2ccccc2)c1 [Example 34, 6,6,6-trifluoro-1-(3-benzyloxyphenyl)hexane-1,5-dione]	≤ 20%			
COc1ccc(C(=O)CCCC(=O)C(F)(F)F)cc1CCCCc1ccccc1 [Example 35, 6,6,6-trifluoro-1-[4-methoxy-3-(4-phenylbutyl)phenyl]hexane-1,5-dione]			≤ 35%	
O=C(CCCC(=O)C(F)(F)F)c1ccc(-c2cccc3ccccc23)cc1 [Example 37, 6,6,6-trifluoro-1-[4-(1-naphthyl)phenyl]hexane-1,5-dione]			≤ 20%	
COc1ccc(C(=O)C(CCCCOc2ccccc2)CCC(=O)C(F)(F)F)cc1 (stereo not shown) [Example 38, 6,6,6-trifluoro-1-(4-methoxyphenyl)-2-(4-phenoxybutyl)hexane-1,5-dione]			≤ 20%	
O=C(CCCC(=O)C(F)(F)F)c1ccc(OCCCCOc2ccccc2)cc1 [Example 54, 6,6,6-trifluoro-1-(4-(4-phenoxybutoxy)phenyl)hexane-1,5-dione]		78.8 to 80.4 °C	≤ 35%	remaining activity at 0.727 µM [1, 4]: ≤ 60%
O=C(CCCC(=O)C(F)(F)F)c1ccc2c(c1)CCCC2 [Example 60, 6,6,6-trifluoro-1-(5,6,7,8-tetrahydronaphthalen-2-yl)hexane-1,5-dione]				remaining activity at 0.727 µM [1, 4]: ≤ 20%
O=C(CCCC(=O)C(F)(F)F)c1ccc(-c2ccc3ccccc3c2)cc1 [Example 62, 6,6,6-trifluoro-1-(4-(2-naphthyl)phenyl)hexane-1,5-dione]				remaining activity at 0.727 µM [1, 4]: ≤ 20%; remaining activity at 0.091 µM [1, 3]: ≤ 60%

More lines, main results first:

remaining activity at 0.727 µM [1, 2]	melting point	remaining activity at 0.182 µM [1, 3]	SMILES	other results
	52.6 to 54.5 °C	≤ 35%	O=C(CCCC(=O)C(F)(F)F)c1ccc(OCCCc2ccccc2)cc1 [Example 55, 6,6,6-trifluoro-1-(4-(3-phenylpropoxy)phenyl)hexane-1,5-dione]	remaining activity at 0.727 µM [1, 4]: ≤ 60%
≤ 35%			O=C(CCCC(=O)C(F)(F)F)c1ccc(Br)cc1 [Example 57, 1-(4-bromophenyl)-6,6,6-trifluorohexane-1,5-dione]	
	67.7 to 68.9 °C		CCCCCCCCCCCCCCCCOc1ccc(C(=O)CCCC(=O)C(F)(F)F)cc1 [Example 63, 6,6,6-trifluoro-1-(4-(hexadecyloxy)phenyl)hexane-1,5-dione]	
	63.3 to 65 °C		CCCCCCCCCCCCCCOc1ccc(C(=O)CCCC(=O)C(F)(F)F)cc1 [Example 65, 6,6,6-trifluoro-1-(4-(tetradecyloxy)phenyl)hexane-1,5-dione]	remaining activity at 0.091 µM [1, 3]: ≤ 20%
